# According to US20230081034A1 (SHANGHAI BENEMAE PHARMACEUTICAL CORPORATION, priority 2020, published 2023):
# Entries after “also recorded” stand apart in the source; their conditions may differ.
# How the values were obtained:
# [1] = test system: patients with type 2 diabetes; test: Randomized, double-blind, placebo-controlled clinical trial: subcutaneous beinaglutide before meals in combination with oral metformin, 12-week treatment; format: in vivo, human
# Experimental: The inclusion criteria (if any) are as follows: Type 2 diabetic patients that met the World Health Organization's diagnostic criteria for type 2 diabetes (WHO, 1999) who received oral metformin treatment at dosages 1,000 mg/d that had stabilized for at least 3 months without treatment-related adverse events (e.g., vomiting) and voluntarily signed informed consent and with the following criteria:
# In a randomized, double-blind, placebo-controlled clinical trial, 42 patients with type 2 diabetes treated with metformin monotherapy were randomly divided into a treatment group and a control group, with 21 cases in each group. All patients received metformin (Glucophage, purchased from Bristol-Myers Squibb) with original dosages. 200 μg of beinaglutide (from Benemae, treatment group) or a placebo (Benemae, control group) were administered to patients by one-time subcutaneous injection before each of three meals (600 μg/d) and followed up after a 12-week treatment.
# Glycated hemoglobin (HbA1c), fasting blood glucose, 2 h postprandial blood glucose, BMI, and other effectiveness indicators were measured.
# [2] = test system: obese and overweight patients with type 2 diabetes; test: Beinaglutide dosing regimen (continuous subcutaneous pump plus pre-meal doses), alone or with metformin / insulin glargine, one month; format: in vivo, human
# Experimental: The beinaglutide dosing regimen included 1) a continuous subcutaneous administration of beinaglutide at 12.5 μg/h (300 μg/d) via a subcutaneous pump, 2) a one-time subcutaneous administration of beinaglutide at a dose of 100 μg 5 min before each of the three meals a day, and 3) optional administration of insulin glargine and/or metformin.
# The patients treated were overweight/obesity in short disease course of type 2 diabetes. Two patients were female, and four patients were male. The patients were 30 to 55 years old with a course of disease between 0 and 5 years with glycated hemoglobin between 9% and 12%, and BMI between 26 and 30 kg/m^2.
# Three patients were treated with beinaglutide monotherapy. Three patients were treated with a combinational therapy of beinaglutide and one or two third active ingredients (metformin, or metformin and glargine). Glycated hemoglobin (HbA1c) and weight were measured.
# The patients were treated with the beinaglutide dosing regimen described herein, either alone or in combination with one or more third active ingredients. Some patients were treated with insulin (daily dosage of 0.5 u/kg) pump treatment alone or in combination with metformin (0.5 g tid) for a week right before starting the beinaglutide treatment.
# [3] = treatment group, after 12 weeks beinaglutide 600 μg/d s.c. + metformin
# [4] = Patient 2: insulin (0.5 u/kg) 1 week, then beinaglutide regimen + metformin (0.5 g tid) 1 month
substance,measurement,setting,value
His-Ala-Glu-Gly-Thr-Phe-Thr-Ser-Asp-Val-Ser-Ser-Tyr-Leu-Glu-Gly-Gln-Ala-Ala-Lys-Glu-Phe-Ile-Ala-Trp-Leu-Val-Lys-Gly-Arg [beinaglutide],"BMI, treatment group versus control group","[1]; 12 weeks, P>0.05",no statistic differences between the two groups
same,Postprandial blood glucose decreased by,"[1]; 2 h postprandial, treatment group, beinaglutide 600 μg/d s.c. + metformin, 12 weeks, P<0.01",4.18 mmol/L
same,HbA1c decreased by,"[1]; treatment group (21 cases), metformin at original dosage + beinaglutide 200 μg s.c. before each of three meals (600 μg/d), 12 weeks, P<0.01",1.17%
same,HbA1c and fasting blood glucose post-treatment versus control group,"[1]; treatment group vs placebo + metformin, 12 weeks, P<0.05",even more significant decrease comparing with control group
same,HbA1c and fasting blood glucose post-treatment versus pre-treatment,"[1]; treatment group, 12 weeks beinaglutide 600 μg/d + metformin",significant decrease comparing with the pre-treatment indicators
same,BMI change after treatment,"[1]; treatment group, 12 weeks, P<0.05 (control group also decreased)",significant decrease in BMI
same,HbA1c post-treatment,"[1]; treatment group, after 12 weeks beinaglutide 200 μg s.c. before each of three meals + metformin",6.8%
same,Fasting blood glucose post-treatment,[1]; [3],7.45 mmol/L
same,Postprandial blood glucose post-treatment,[1]; [3],11.02 mmol/L
same,Fasting blood glucose pre-treatment,"[1]; treatment group, baseline",9.43 mmol/L
same,Postprandial blood glucose pre-treatment,"[1]; treatment group, baseline",15.2 mmol/L
same,HbA1c pre-treatment,"[1]; treatment group, baseline before beinaglutide 600 μg/d + metformin",7.97%
same,Fasting blood glucose decreased by,"[1]; treatment group, beinaglutide 600 μg/d s.c. + metformin, 12 weeks",1.98 mmol/L
same,Body weight pre-treatment,"[2]; Patient 1, baseline",61 kg
same,HbA1c pre-treatment,"[2]; Patient 1, baseline",9.4%
same,Body weight post-treatment,"[2]; Patient 1: insulin (0.5 u/kg) + metformin (0.5 g tid) 1 week, then beinaglutide monotherapy (12.5 μg/h continuous s.c. + 100 μg before each of three meals) 1 month",57.5 kg
same,Body weight pre-treatment,"[2]; Patient 2, baseline",99 kg
same,HbA1c pre-treatment,"[2]; Patient 2, baseline",8.8%
same,Body weight post-treatment,[2]; [4],93 kg
same,HbA1c post-treatment,[2]; [4],6.3%
same,Body weight pre-treatment,"[2]; Patient 3, baseline",88 kg
same,HbA1c pre-treatment,"[2]; Patient 3, baseline",12.3%
same,Body weight post-treatment,"[2]; Patient 3: insulin (0.5 u/kg) 1 week, then beinaglutide regimen + metformin (0.5 g tid) 1 month",83 kg
same,Body weight pre-treatment,"[2]; Patient 4, baseline",80 kg
same,HbA1c pre-treatment,"[2]; Patient 4, baseline",9.3%
same,Body weight post-treatment,"[2]; Patient 4: insulin (0.5 u/kg) 1 week, then beinaglutide regimen + metformin (0.5 g tid) + insulin glargine (16 u s.c. before bed) 1 month",73 kg
same,Body weight pre-treatment,"[2]; Patient 5, baseline",80 kg
same,HbA1c pre-treatment,"[2]; Patient 5, baseline",7.3%
same,Body weight post-treatment,[2]; Patient 5: beinaglutide monotherapy (12.5 μg/h continuous s.c. + 100 μg before each of three meals) 1 month,77 kg
same,Body weight pre-treatment,"[2]; Patient 6, baseline",85 kg
same,HbA1c pre-treatment,"[2]; Patient 6, baseline",9.7%
same,Body weight post-treatment,"[2]; Patient 6: insulin (0.5 u/kg) 1 week, then beinaglutide monotherapy (0.6 mg/d) 1 month",78 kg
same,Overall outcome on body weight and HbA1c,"[2]; six patients, continuous 300 μg/d + 100 μg tid before meal, alone or with metformin or metformin and insulin glargine, one month",significant weight loss and/or HbA1c decrease; also recorded: achieved decrease in HbA1c and/or body weight
